Test [1] deals with prostate cancer cell lines (e.g. DU145/TXR). The test can be described thus: Cell based assay, cell viability (CellTiter-Glo), prostate cancer cell lines. The conditions noted are these: Homo sapiens, 72 hours treatment, final concentration 0 to 2 μM. In outline: (§1)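 Luminescent ATP assay quantified surviving cells after three days of treatment. Compound was applied at final concentrations of 0 to 2 μM, starting 24 h after cells were seeded.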

The next test relates to renal cancer cell lines. In words: Cell based assay, cell viability (CellTiter-Glo), renal cancer cell lines. The conditions noted are these: Homo sapiens; ACHN cells. In outline:
as §1

Where [2] appears, read: CWR22 cells, read-out: IC50, prostate cancer cell line CWR22.
Setting [3] is: DU-145, DU145/TXR cells, read-out: IC50, prostate cancer cell line DU145/TXR.
The mark [4] stands for this setting: DU-145, DU145 cells, read-out: IC50, prostate cancer cell line DU145.
Where [5] appears, read: LNcap cells, read-out: IC50, prostate cancer cell line LNcap.
Setting [6] is: PC-3 cells, read-out: IC50, prostate cancer cell line PC-3.

Like-named read-outs stand apart in the source and are kept apart here. Where only a bound is given, the exact number is not on record here.

As to `CC(=O)c1c([S+]([O-])Cc2ccc(SC(F)(F)F)cc2)[nH]c2c(Br)ccc(Cl)c2c1=O` (centres unmarked) [Compound 56, 3-acetyl-8-bromo-5-chloro-2-((4-((trifluoromethyl)thio)benzyl)sulfinyl)quinolin-4(1H)-one], the IC50 in test [1] (setting [2]) was 1.55 µM; in test [1] (setting [3]), 0.86 µM; in test [1] (setting [4]) it was 1.42 µM; in test [1] (setting [5]) it was 1.82 µM; in test [1] (setting [6]) it was 1.3 µM; with renal cancer cell lines, > 2 µM.
For the molecule `CC(=O)c1c([S+]([O-])Cc2ccc(F)c(Cl)c2)[nH]c2c(Br)ccc(Cl)c2c1=O` (centres unmarked) [Compound 31, 3-acetyl-8-bromo-5-chloro-2-((3-chloro-4-fluorobenzyl)sulfinyl)quinolin-4(1H)-one], the IC50 in test [1] (setting [2]) was 1.59 µM; in test [1] (setting [3]) it was 0.93 µM; in test [1] (setting [4]), 1.44 µM; in test [1] (setting [5]) it was 1.64 µM; in test [1] (setting [6]), 1.41 µM; in the test on renal cancer cell lines it was > 2 µM.
Turning to `CC(=O)c1c([S+]([O-])Cc2ccc(OC(F)(F)F)cc2)[nH]c2c(Br)ccc(Cl)c2c1=O` (centres unmarked) [Compound 71, 3-acetyl-8-bromo-5-chloro-2-((4-(trifluoromethoxy)benzyl)sulfinyl)quinolin-4(1H)-one], the IC50 is > 2 µM in test [1] (setting [2]); 1.23 µM in test [1] (setting [3]); 1.74 µM in test [1] (setting [4]); > 2 µM in test [1] (setting [5]); 1.7 µM in test [1] (setting [6]); > 2 µM in the test on renal cancer cell lines.
As for `CC(=O)c1c([S+]([O-])Cc2ccc(C#N)cc2)[nH]c2c(Br)ccc(Cl)c2c1=O` (centres unmarked) [Compound 73, 4-(((3-acetyl-8-bromo-5-chloro-4-oxo-1,4-dihydroquinolin-2-yl)sulfinyl)methyl)benzonitrile], the IC50 in test [1] (setting [2]) is > 2 µM; in test [1] (setting [3]), 1.77 µM; in test [1] (setting [4]), > 2 µM; in test [1] (setting [5]) it was > 2 µM; in test [1] (setting [6]) it was 1.87 µM; in the test with renal cancer cell lines it was > 2 µM.
`CC(=O)c1c([S+]([O-])Cc2cc(F)cc(S(F)(F)(F)(F)F)c2)[nH]c2c(Br)ccc(Cl)c2c1=O` (centres unmarked) [Compound 76, 3-acetyl-8-bromo-5-chloro-2-((3-fluoro-5-(pentafluoro--sulfanyl)benzyl)sulfinyl)quinolin-4(1H)-one]: the IC50 in test [1] (setting [2]) was > 2 µM; in test [1] (setting [3]), 1.17 µM; in test [1] (setting [4]), 1.14 µM; in test [1] (setting [5]), > 2 µM; in test [1] (setting [6]) it was 1.7 µM; in the test on renal cancer cell lines, > 2 µM.
In the case of `CC(=O)c1c([S+]([O-])Cc2c(F)cccc2Cl)[nH]c2c(Br)ccc(Cl)c2c1=O` (centres unmarked) [Compound 74, 3-acetyl-8-bromo-5-chloro-2-((2-chloro-6-fluorobenzyl)sulfinyl)quinolin-4(1H)-one], the IC50 in test [1] (setting [2]) is 1.72 µM; in test [1] (setting [3]) it was 1.46 µM; in test [1] (setting [4]) it was > 2 µM; in test [1] (setting [5]), 1.76 µM; in test [1] (setting [6]), 1.47 µM; in the test with renal cancer cell lines, > 2 µM.
With `CC(=O)c1c([S+]([O-])Cc2ccc([S+]([O-])C(F)(F)F)cc2)[nH]c2c(Br)ccc(Cl)c2c1=O` (centres unmarked) [Compound 64, 3-acetyl-8-bromo-5-chloro-2-((4-((trifluoromethyl)sulfinyl)benzyl)sulfinyl)quinolin-4(1H)-one], the IC50 in test [1] (setting [2]) is 1.49 µM; in test [1] (setting [3]) it was 1.16 µM; in test [1] (setting [4]), 1.57 µM; in test [1] (setting [5]), 1.71 µM; in test [1] (setting [6]) it was 1.43 µM; with renal cancer cell lines, > 2 µM.
Turning to `COc1cc(C[S+]([O-])c2[nH]c3c(Br)ccc(Cl)c3c(=O)c2C(C)=O)cc(OC)c1` (centres unmarked) [Compound 59, 3-acetyl-8-bromo-5-chloro-2-((3,5-dimethoxybenzyl)sulfinyl)quinolin-4(1H)-one], the IC50 in test [1] (setting [2]) is 1.56 µM; in test [1] (setting [4]), 1.49 µM; in test [1] (setting [5]), > 2 µM; in test [1] (setting [6]), 1.64 µM; in the test on renal cancer cell lines it was > 2 µM.
As for `CC(=O)c1c([S+]([O-])Cc2cccc(F)c2)[nH]c2c(Br)ccc(Cl)c2c1=O` (centres unmarked) [Compound 50, 3-acetyl-8-bromo-5-chloro-2-((3-fluorobenzyl)sulfinyl)quinolin-4(1H)-one], the IC50 in test [1] (setting [2]) was > 2 µM; in test [1] (setting [3]), 1.28 µM; in test [1] (setting [4]) it was 1.77 µM; in test [1] (setting [5]), > 2 µM; in test [1] (setting [6]), 1.6 µM; in the test with renal cancer cell lines, > 2 µM.
With `CC(=O)c1c([S+]([O-])Cc2cc(Cl)ccc2Cl)[nH]c2c(Br)ccc(Cl)c2c1=O` (centres unmarked) [Compound 44, 3-acetyl-8-bromo-5-chloro-2-((2,5-dichlorobenzyl)sulfinyl)quinolin-4(1H)-one], the IC50 is 1.58 µM in test [1] (setting [2]); 1 µM in test [1] (setting [3]); 1.6 µM in test [1] (setting [4]); 1.98 µM in test [1] (setting [5]); 1.49 µM in test [1] (setting [6]); > 2 µM with renal cancer cell lines.
For the molecule `COc1cccc(C[S+]([O-])c2[nH]c3c(Br)ccc(Cl)c3c(=O)c2C(C)=O)c1` (centres unmarked) [Compound 55, 3-acetyl-8-bromo-5-chloro-2-((3-methoxybenzyl)sulfinyl)quinolin-4(1H)-one], the IC50 is > 2 µM in test [1] (setting [2]); 1.39 µM in test [1] (setting [3]); > 2 µM in test [1] (setting [4]); > 2 µM in test [1] (setting [5]); 1.93 µM in test [1] (setting [6]); > 2 µM in the test with renal cancer cell lines.
With `CC(=O)c1c([S+]([O-])Cc2cc(C)on2)[nH]c2c(Br)ccc(Cl)c2c1=O` (centres unmarked) [Compound 51, 3-acetyl-8-bromo-5-chloro-2-(((5-methylisoxazol-3-yl)methyl)sulfinyl)quinolin-4(1H)-one], the IC50 in test [1] (setting [2]) was 1.03 µM; in test [1] (setting [3]), 1.12 µM; in test [1] (setting [4]) it was 1.24 µM; in test [1] (setting [5]), 1.24 µM; in test [1] (setting [6]) it was 1.36 µM; in the test with renal cancer cell lines it was > 2 µM.
As for `CC(=O)c1c([S+]([O-])Cc2ccc(F)cc2F)[nH]c2c(Br)ccc(Cl)c2c1=O` (centres unmarked) [Compound 29, 3-acetyl-8-bromo-5-chloro-2-((2,4-difluorobenzyl)sulfinyl)quinolin-4(1H)-one], the IC50 was 1.77 µM in test [1] (setting [2]); 1.73 µM in test [1] (setting [4]); 1.55 µM in test [1] (setting [5]); 1.46 µM in test [1] (setting [6]); > 2 µM with renal cancer cell lines.
As to `CC(=O)c1c([S+]([O-])Cc2ccc(C(F)(F)F)cc2)[nH]c2c(Br)ccc(Cl)c2c1=O` (centres unmarked) [Compound 70, 3-acetyl-8-bromo-5-chloro-2-((4-(trifluoromethyl)benzyl)sulfinyl)quinolin-4(1H)-one], the IC50 in test [1] (setting [2]) is 1.89 µM; in test [1] (setting [3]), 1.19 µM; in test [1] (setting [4]), 1.09 µM; in test [1] (setting [5]), > 2 µM; in test [1] (setting [6]), 1.25 µM; in the test on renal cancer cell lines, > 2 µM.
As for `CC(=O)c1c([S+]([O-])Cc2ccc(I)cc2)[nH]c2c(Cl)ccc(Cl)c2c1=O` (centres unmarked) [Compound 83, 3-acetyl-5,8-dichloro-2-((4-iodobenzyl)sulfinyl)quinolin-4(1H)-one], the IC50 in test [1] (setting [2]) was 1.94 µM; in test [1] (setting [3]) it was 1.05 µM; in test [1] (setting [4]), 1.34 µM; in test [1] (setting [5]) it was > 2 µM; in test [1] (setting [6]) it was > 2 µM; in the test on renal cancer cell lines, > 2 µM.
In the case of `CC(=O)c1c([S+]([O-])Cc2cccnc2)[nH]c2c(Br)ccc(Cl)c2c1=O` (centres unmarked) [Compound 84, 3-acetyl-8-bromo-5-chloro-2-((pyridin-3-ylmethyl)sulfinyl)quinolin-4(1H)-one], the IC50 is 1.42 µM in test [1] (setting [2]); 1.23 µM in test [1] (setting [3]); 1.39 µM in test [1] (setting [4]); > 2 µM in test [1] (setting [5]); > 2 µM in test [1] (setting [6]); 1.38 µM in the test on renal cancer cell lines.
Consider `Cc1cc(C[S+]([O-])c2[nH]c3c(Br)ccc(Cl)c3c(=O)c2C(=O)C(C)C)no1` (centres unmarked) [Compound 95, 8-bromo-5-chloro-3-isobutyryl-2-(((5-methylisoxazol-3-yl)methyl)sulfinyl)quinolin-4(1H)-one], for which the IC50 in test [1] (setting [2]) was 1.08 µM; in test [1] (setting [3]) it was 0.94 µM; in test [1] (setting [4]) it was 0.84 µM; in test [1] (setting [5]), 1.98 µM; in test [1] (setting [6]) it was 1.7 µM; in the test on renal cancer cell lines, 1.19 µM.
For `CC(=O)c1c(S(=O)(=O)Cc2ccccc2)[nH]c2c(Br)ccc(Cl)c2c1=O` [Compound 34, 3-acetyl-2-(benzylsulfonyl)-8-bromo-5-chloroquinolin-4(1H)-one], the IC50 in test [1] (setting [2]) is > 2 µM; in test [1] (setting [3]), 1.59 µM; in test [1] (setting [4]), > 2 µM; in the test with renal cancer cell lines, > 2 µM.
Consider `CC(=O)c1c([S+]([O-])Cc2ccc(C(F)(F)F)o2)[nH]c2c(Br)ccc(Cl)c2c1=O` (centres unmarked) [Compound 72, 3-acetyl-8-bromo-5-chloro-2-(((5-(trifluoromethyl)furan-2-yl)methyl)sulfinyl)quinolin-4(1H)-one], for which the IC50 in test [1] (setting [2]) was 1.52 µM; in test [1] (setting [3]) it was 0.89 µM; in test [1] (setting [4]), 0.71 µM; in test [1] (setting [5]), 1.91 µM; in test [1] (setting [6]), 1.28 µM; with renal cancer cell lines, > 2 µM.
Turning to `CC(=O)c1c([S+]([O-])Cc2cc(F)cc(F)c2)[nH]c2c(Br)ccc(Cl)c2c1=O` (centres unmarked) [Compound 46, 3-acetyl-8-bromo-5-chloro-2-((3,5-difluorobenzyl)sulfinyl)quinolin-4(1H)-one], the IC50 in test [1] (setting [2]) was > 2 µM; in test [1] (setting [3]) it was 1.56 µM; in test [1] (setting [4]) it was > 2 µM; in test [1] (setting [5]) it was > 2 µM; in test [1] (setting [6]) it was > 2 µM; in the test with renal cancer cell lines it was > 2 µM.
For `CC(=O)c1c([S+]([O-])Cc2ccc([N+](=O)[O-])cc2)[nH]c2c(Cl)ccc(Cl)c2c1=O` (centres unmarked) [Compound 57, 3-acetyl-5,8-dichloro-2-((4-nitrobenzyl)sulfinyl)quinolin-4(1H)-one], the IC50 (in test [1] (setting [2]); in test [1] (setting [3]); in test [1] (setting [4]); in test [1] (setting [5]); in test [1] (setting [6]); with renal cancer cell lines) was > 2 µM each time.
`CC(=O)c1c([S+]([O-])Cc2ccc([N+](=O)[O-])cc2)[nH]c2c(Br)ccc(Cl)c2c1=O` (centres unmarked) [Compound 33, 3-acetyl-8-bromo-5-chloro-2-((4-nitrobenzyl)sulfinyl)quinolin-4(1H)-one]: the IC50 in test [1] (setting [2]) is 1.34 µM; in test [1] (setting [3]), 1.34 µM; in test [1] (setting [4]), 1.63 µM; in test [1] (setting [5]), 1.84 µM; in test [1] (setting [6]), 1.58 µM; with renal cancer cell lines, > 2 µM.
For the molecule `CC(=O)c1c([S+]([O-])Cc2ccc(C(C)(C)C)cc2)[nH]c2c(Br)ccc(Cl)c2c1=O` (centres unmarked) [Compound 60, 3-acetyl-8-bromo-2-((4-(tert-butyl)benzyl)sulfinyl)-5-chloroquinolin-4(1H)-one], the IC50 in test [1] (setting [2]) is > 2 µM; in test [1] (setting [3]), 1.26 µM; in test [1] (setting [4]), > 2 µM; in test [1] (setting [5]) it was > 2 µM; in test [1] (setting [6]), 1.82 µM; with renal cancer cell lines it was > 2 µM.

Source of the values: patent US11464770B2, “Anticancer pharmaceutical composition” (NATIONAL CANCER CENTER, priority 2016, dated 2022).
